{"source": "patent US20140023657A1", "about": "“IN VITRO METHOD FOR IDENTIFYING COMPOUNDS FOR CANCER THERAPY” (CONSEJO SUPERIOR DE INVESTIGACIONES CIENTIFICAS, priority 2005, published 2014)", "key": {"BEC": {"test_system": "BEC", "test": "Antiproliferative effect of ChoK inhibition, primary bronchial epithelial cells", "type": "cell-based, human", "method": "(§1) First, the mRNA levels corresponding to said enzyme in cell lines derived from patients with lung cancer were detected again by means of automated real-time quantitative PCR reactions with specific Taqman probes. They were carried out both on cell lines corresponding to the most common type of lung cancer (75-85%), non-microcytic or NSCLC (non small cell lung cancer), represented by lines H460 and H1299, and on lines corresponding to the other type of cancer, microcytic or SCLC (small cell lung cancer), represented by lines H510 and H82, the data being represented in logarithmic scale relating to normal primary human bronchial epithelial cells, BEC. […] An increase with respect to the controls, which is particularly considerable in the case of the SCLC lines, especially H510, is observed in all cases.\n(§2) The antiproliferative effect of ChoK inhibition in said cell lines caused by the addition of MN58b was also checked, obtaining the results shown in the following Table, in which the numbers between parentheses indicate the sensitivity of each cell compared with the primary cells. The differences between the primary cells and the four cell lines derived from tumors were significant (p:<0.001) in all the analyzed time periods."}, "HMEC [1]": {"test_system": "HMEC", "test": "Antiproliferative effect of ChoK inhibition, primary mammary epithelial cells", "type": "cell-based, human", "source_text": "as §2"}, "H1299": {"test_system": "H1299", "test": "Antiproliferative effect of ChoK inhibition, NSCLC line", "type": "cell-based, human", "conditions": "for IC50: H1299 (NSCLC); for sensitivity of the cell compared with the primary cells: number in parentheses", "method": "as §1, §2"}, "H460": {"test_system": "H460", "test": "Antiproliferative effect of ChoK inhibition, NSCLC line", "type": "cell-based, human", "conditions": "for IC50: H460 (NSCLC); for sensitivity of the cell compared with the primary cells: number in parentheses", "method": "as §1, §2"}, "H510": {"test_system": "H510", "test": "Antiproliferative effect of ChoK inhibition, SCLC line", "type": "cell-based, human", "conditions": "for IC50: H510 (SCLC); for sensitivity of the cell compared with the primary cells: number in parentheses", "method": "as §1, §2"}, "H82": {"test_system": "H82", "test": "Antiproliferative effect of ChoK inhibition, SCLC line", "type": "cell-based, human", "conditions": "for IC50: H82 (SCLC); for sensitivity of the cell compared with the primary cells: number in parentheses", "method": "as §1, §2"}, "[2]": {"target": "T1, recombinant human choline kinase alpha (Homo sapiens, UniProt P35790)", "T1 construct": "made in house; host or cells: E. coli", "T1 sequence (P35790 whole entry, canonical isoform)": "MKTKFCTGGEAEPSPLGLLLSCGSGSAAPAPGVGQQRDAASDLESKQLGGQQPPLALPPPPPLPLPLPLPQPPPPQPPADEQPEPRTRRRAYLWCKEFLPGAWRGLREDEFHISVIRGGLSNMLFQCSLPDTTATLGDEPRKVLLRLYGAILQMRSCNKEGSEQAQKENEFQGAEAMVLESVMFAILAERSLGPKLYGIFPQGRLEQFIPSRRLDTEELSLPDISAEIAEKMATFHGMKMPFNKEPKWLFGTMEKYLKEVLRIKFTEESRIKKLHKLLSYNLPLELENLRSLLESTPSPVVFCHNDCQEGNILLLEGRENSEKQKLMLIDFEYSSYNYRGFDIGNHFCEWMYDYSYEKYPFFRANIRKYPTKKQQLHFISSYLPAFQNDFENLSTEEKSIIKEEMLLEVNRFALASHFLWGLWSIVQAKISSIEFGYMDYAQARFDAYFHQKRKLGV", "test": "Enzymatic activity of recombinant choline kinase isoforms in E. coli extracts", "type": "biochemical", "conditions": "recombinant isoforms expressed in E. coli", "method": "FIG. 9: Specificity of the inhibitor MN58b on choline kinase alpha. E. coil extracts in which recombinant human choline kinase alpha or choline kinase beta proteins are expressed were analyzed in the absence (0) or in the presence of increasing concentrations of MN58b.\nOnce the oncogenic activity of the choline kinase alpha isoform, as well as its high incidence of overexpression in human tumors was verified, it was then studied if the anti-tumor effect of the inhibitor MN58b [Hernández-Alcoceba, R., Saniger, L., Campos, J., Núñdez, M. C., Khaless, F., Gallo, M. Á., Espinosa, A., Lacal, J. C. Oncogene, 15, 2289-2301 (1997); Hernández-Alcoceba, R., Fernández, F., Lacal J. C. Cancer Res. 55, 3112-3118 (1999); Ramirez de Molina A., Bañez-Coronel M., Gutiérrez R., Rodriguez González A., Olmeda D., Megias D., Lacal J. C. Cancer Res. 64:6732-6739 (2004)] is specific for this choline kinase alpha isoform or if, in contrast, it could also be attributed to its possible interaction with the choline kinase beta isoform. This verification is necessary because the two choline kinase alpha and choline kinase beta isoforms share up to 75% homology in the substrate binding domains and in the catalytic region. […]"}, "[3]": {"test_system": "HEK293T cells transfected with the cka gene", "test": "Growth of tumors induced by choline kinase alpha overexpression in Nu/Nu mice", "type": "in vivo", "conditions": "5 mg/Kg intraperitoneally, 5 consecutive days with 9 days of rest", "method": "Given that tumors have been generated in vivo by overexpressing choline kinase alpha and that MN58b is specific for this isoform, it has been verified if the growth of the tumors induced by ChoKα is susceptible to inhibition by MN58b. […] When the tumors reached a tumor volume of 0.1 cm^3, treatment with the specific choline kinase alpha inhibitor, MN58b, began, which was administered intraperitoneally in sterile physiological serum for 5 consecutive days with 9 days of rest at a dose of 5 mg/Kg. The control mice received equivalent carrier doses, following the same calendar and the tumors were monitored at least twice a week."}, "Ch-ind-1 cells": {"test_system": "Ch-ind-1 cells", "test": "Proliferation of inducible interference line with chemical ChoK inhibitors", "type": "cell-based, human", "conditions": "Ch-ind-1, analogous to parent MDA-MB-231", "source_text": "FIG. 23: Proliferation of MDA-MB-231 (upper row of plaques) and Ch-ind-1 (lower row of plaques) cells in growth permissive conditions (“Control” column? or in the presence of the chemical inhibitors of choline kinase MN58b (middle column) or RSM936 (right column).\nFIGS. 23 and 24 show the results obtained in Ch-ind-1 cells, a cell line derived from MDA-MB-231, capable of expressing the interference construction after treatment with the inducing agent doxocycline. […] The genetic inhibition of ChoKα is correlated with a reduction of cell proliferation (determined by pCNA) and an increase of cell death due to apoptosis (determined by PARPdig, degraded PARP protein, which is an indicator of apoptosis). The effect begins to be seen after 10 days, although it is still very initial, and is much more pronounced 20 days after the beginning of the experiment (in which the population has very little ChoKα expression)."}, "MDA-MB-231": {"test_system": "MDA-MB-231", "conditions": "MDA-MB-231, previously described; cited from earlier work"}, "HMEC [4]": {"test_system": "HMEC", "conditions": "cited from earlier work"}}, "note": "Read-outs that look alike come from different tables or passages of the source.", "data": [{"substance": "MN58b", "values": [{"measurement": "IC50", "setting": "BEC; 48 h, read-out: 48 h IC50", "value": "40500 ± 6200", "unit": "nM"}, {"measurement": "IC50", "setting": "BEC; 72 h, read-out: 72 h IC50", "value": "18300 ± 4800", "unit": "nM"}, {"measurement": "IC50", "setting": "BEC; 114 h, read-out: 114 h IC50", "value": "4200 ± 800", "unit": "nM"}, {"measurement": "IC50", "setting": "HMEC [1]; 48 h, read-out: 48 h IC50", "value": "44700 ± 4950", "unit": "nM"}, {"measurement": "IC50", "setting": "HMEC [1]; 72 h, read-out: 72 h IC50", "value": "20900 ± 2700", "unit": "nM"}, {"measurement": "IC50", "setting": "HMEC [1]; 114 h, read-out: 114 h IC50", "value": "3400 ± 130", "unit": "nM"}, {"measurement": "IC50", "setting": "H1299; 48 h, read-out: 48 h IC50", "value": "10300 ± 2500", "unit": "nM"}, {"measurement": "IC50", "setting": "H1299; 72 h, read-out: 72 h IC50", "value": "2700 ± 700", "unit": "nM"}, {"measurement": "IC50", "setting": "H1299; 114 h, read-out: 114 h IC50", "value": "900 ± 100", "unit": "nM"}, {"measurement": "sensitivity of the cell compared with the primary cells", "setting": "H1299; H1299, 48 h", "value": 4}, {"measurement": "sensitivity of the cell compared with the primary cells", "setting": "H1299; H1299, 72 h", "value": 8}, {"measurement": "sensitivity of the cell compared with the primary cells", "setting": "H1299; H1299, 114 h", "value": 4}, {"measurement": "IC50", "setting": "H460; 48 h, read-out: 48 h IC50", "value": "7030 ± 2030", "unit": "nM"}, {"measurement": "IC50", "setting": "H460; 72 h, read-out: 72 h IC50", "value": "2600 ± 800", "unit": "nM"}, {"measurement": "IC50", "setting": "H460; 114 h, read-out: 114 h IC50", "value": "1100 ± 100", "unit": "nM"}, {"measurement": "sensitivity of the cell compared with the primary cells", "setting": "H460; H460, 48 h", "value": 6}, {"measurement": "sensitivity of the cell compared with the primary cells", "setting": "H460; H460, 72 h", "value": 8}, {"measurement": "sensitivity of the cell compared with the primary cells", "setting": "H460; H460, 114 h", "value": 3}, {"measurement": "IC50", "setting": "H510; 48 h, read-out: 48 h IC50", "value": "1100 ± 100", "unit": "nM"}, {"measurement": "IC50", "setting": "H510; 72 h, read-out: 72 h IC50", "value": "400 ± 50", "unit": "nM"}, {"measurement": "IC50", "setting": "H510; 114 h, read-out: 114 h IC50", "value": "100 ± 30", "unit": "nM"}, {"measurement": "sensitivity of the cell compared with the primary cells", "setting": "H510; H510, 48 h", "value": 41}, {"measurement": "sensitivity of the cell compared with the primary cells", "setting": "H510; H510, 72 h", "value": 53}, {"measurement": "sensitivity of the cell compared with the primary cells", "setting": "H510; H510, 114 h", "value": 27}, {"measurement": "IC50", "setting": "H82; 48 h, read-out: 48 h IC50", "value": "1900 ± 200", "unit": "nM"}, {"measurement": "IC50", "setting": "H82; 72 h, read-out: 72 h IC50", "value": "800 ± 40", "unit": "nM"}, {"measurement": "IC50", "setting": "H82; 114 h, read-out: 114 h IC50", "value": "270 ± 10", "unit": "nM"}, {"measurement": "sensitivity of the cell compared with the primary cells", "setting": "H82; H82, 48 h", "value": 24}, {"measurement": "sensitivity of the cell compared with the primary cells", "setting": "H82; H82, 72 h", "value": 27}, {"measurement": "sensitivity of the cell compared with the primary cells", "setting": "H82; H82, 114 h", "value": 12}, {"measurement": "times more active against choline kinase alpha than against choline kinase beta", "setting": "[2]", "value": 20, "unit": "times"}, {"measurement": "tumor growth reduction", "setting": "[3]", "value": 80, "unit": "%"}, {"measurement": "sensitivity of proliferation to chemical inhibition of ChoKα", "setting": "Ch-ind-1 cells", "value": "sensitive to the chemical inhibition"}, {"measurement": "anti-tumor effect of pharmacological inhibition of choline kinase", "setting": "MDA-MB-231", "value": "strong anti-tumor effect due to apoptosis induction"}, {"measurement": "cell fate of primary cells after treatment", "setting": "HMEC [4]; HMEC treated with the inhibitor", "value": "cycle-arrested"}, {"measurement": "effect on the viability of normal primary cells", "setting": "HMEC [4]; HMEC, chemical inhibitor", "value": "no effect on the viability"}]}]}
